Reference: US20150266850A1 (E.I.DU PONT DE NEMOURS AND COMPANY, priority 2012, published 2015)
Marks after values point to notes of the source that are not given here.

Legend:
[1] = system: Erysiphe graminis f. sp. tritici; experiment: Test A: wheat powdery mildew, preventive spray on wheat seedlings, visual disease rating; format: in vivo; conditions: 100 = 100% disease control; for pest or weed control at 40 ppm / pest or weed control at 200 ppm: Blumeria graminis, 192 h
How it was run: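 Preventive test: seedlings inoculated with Erysiphe spores one day after run-off spraying at 200 ppm (or 40/50 ppm) in acetone/water plus surfactant. Kept 8 days at 20° C; visual rating as % disease control versus untreated (100 = full control).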

[2] = system: Puccinia recondita f sp. tritici; experiment: Test B: wheat leaf rust, preventive spray on wheat seedlings, visual disease rating; format: in vivo; conditions: 100 = 100% disease control; for pest or weed control at 40 ppm / pest or weed control at 200 ppm: 192 h
How it was run: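 Preventive spray to run-off on seedlings, one day before spore inoculation; 24 h in saturated atmosphere at 20° C, then 7 days in a 20° C growth chamber before visual rating (100 = full control, 0 = none, relative to controls). Standard rate 200 ppm, equal to 800 g/ha, some at 40 or 50 ppm; compounds in acetone/water with 250 ppm surfactant.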

Septoria tritici = experiment: Test C: wheat leaf blotch, preventive spray on wheat seedlings, visual disease rating; format: in vivo; conditions: 100 = 100% disease control
How it was run: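 Preventive run-off spray on seedlings at 200 ppm (equal to 800 g/ha), some at 40 or 50 ppm, in acetone/water 50/50 plus 250 ppm Trem® 014. Spore inoculation one day later; 24° C. saturated for 48 h, 20° C. chamber 19 days. Disease scored visually as % control relative to controls.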

Septoria nodorum = experiment: Test D: wheat glume blotch, preventive spray on wheat seedlings, visual disease rating; format: in vivo; conditions: 100 = 100% disease control
How it was run: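 Disease control (0 = none, 100 = full, relative to controls) was scored visually on wheat seedlings 7 days after a 48 h saturated-humidity incubation at 20° C following Septoria nodorum inoculation. Inoculation came one day after a run-off spray at 200 ppm (some 40 or 50 ppm) in acetone/water plus surfactant.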

Botrytis cinerea = experiment: Test E: tomato botrytis, preventive spray on tomato seedlings, visual disease rating; format: in vivo; conditions: 100 = 100% disease control
How it was run: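 Preventive test: seedlings inoculated with Botrytis cinerea spore suspension one day after run-off spraying (200 ppm ≈ 800 g/ha; some 40 or 50 ppm) in acetone/water with 250 ppm surfactant. Incubation 48 h at 20°C saturated humidity, then 3 days at 27°C; disease control rated visually (0–100%) relative to controls.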

[3] = Photostability Example: aqueous photolysis under xenon arc lamp simulating natural sunlight for 24 hours, percent remaining relative to dark controls; format: physicochemical; conditions: 0.670 μg/mL in 80/20 10 mM pH 7 phosphate buffer/acetonitrile, xenon arc lamp 24 hours
Description: Aqueous photolysis data is a simple proxy for photostability under field conditions. The following aqueous photolysis data supports the enhanced photostability of the tolyl fungicides of the present invention.
Test compound (0.670 μg/mL) dissolved in 80/20 10 mM pH 7 phosphate buffer/acetonitrile is added to 2-mL borosilicate glass HPLC vials. The addition of 20% acetonitrile is intended to ensure solubility of compounds with low aqueous solubility. Samples are exposed to light in an Atlas Ci65 Burner photolysis chamber fitted with a xenon arc lamp (6500 W) to simulate natural sunlight for 24 hours and compared with samples wrapped in aluminum foil to protect them from light under the same conditions. The 24-hour irradiation is equivalent to ˜2.6 days of average Delaware summer sunlight exposure. Samples are analyzed by HPLC and results are reported as percent remaining based on peak area relative to the dark controls.

[4] = Zymoseptoria tritici, 504 h, 40 ppm (*)
[5] = Parastagonospora nodorum, 216 h, 40 ppm (*)
[6] = Botrytis cinerea, 120 h, 40 ppm (*)

Molecule: COC(=O)NCc1cc(-c2ncn(-c3ccc(OC)cc3C)n2)ccc1C [Compound 70, methyl N-[[5-[1-(4-methoxy-2-methylphenyl)-1H-1,2,4-triazol-3-yl]-2-methylphenyl]methyl]carbamate]
- pest or weed control at 40 ppm ([1]; 40 ppm (*)): 99%
- pest or weed control at 40 ppm ([2]; 40 ppm (*)): 100%
- pest or weed control at 40 ppm (Septoria tritici; [4]): 96%
- pest or weed control at 40 ppm (Septoria nodorum; [5]): 100%
- pest or weed control at 40 ppm (Botrytis cinerea; [6]): 84%

Molecule: COC(=O)NCc1cc(-c2ncn(-c3ccc(OC)cc3Cl)n2)ccc1C [Compound 78]
- pest or weed control at 40 ppm ([1]; 40 ppm (*)): 99%
- pest or weed control at 40 ppm ([2]; 40 ppm (*)): 100%
- pest or weed control at 40 ppm (Septoria tritici; [4]): 93%
- pest or weed control at 40 ppm (Septoria nodorum; [5]): 100%
- pest or weed control at 40 ppm (Botrytis cinerea; [6]): 68%
- melting point: 145 to 148 °C

Molecule: COC(=O)NCc1cc(-c2ncn(-c3ccc(OC)cc3F)n2)ccc1C [Compound 79]
- pest or weed control at 40 ppm ([1]; 40 ppm (*)): 100%
- pest or weed control at 40 ppm ([2]; 40 ppm (*)): 100%
- pest or weed control at 40 ppm (Septoria tritici; [4]): 95%
- pest or weed control at 40 ppm (Septoria nodorum; [5]): 100%
- pest or weed control at 40 ppm (Botrytis cinerea; [6]): 76%
- melting point: 164 to 166 °C

Molecule: COC(=O)NCc1cc(-n2ncc(-c3ccc(I)cc3OC)[n+]2[O-])ccc1C [Compound 81]
- pest or weed control at 200 ppm ([1]; 200 ppm): 99%
- pest or weed control at 200 ppm ([2]; 200 ppm): 100%
- pest or weed control at 200 ppm (Septoria tritici; Zymoseptoria tritici, 504 h, 200 ppm): 98%
- pest or weed control at 200 ppm (Septoria nodorum; Parastagonospora nodorum, 216 h, 200 ppm): 100%
- pest or weed control at 200 ppm (Botrytis cinerea; Botrytis cinerea, 120 h, 200 ppm): 67%

Molecule: COC(=O)NCc1cc(-c2ncn(-c3ccc(F)cc3F)n2)ccc1C [Compound 117]
- pest or weed control at 200 ppm ([1]; 200 ppm): 100%
- pest or weed control at 200 ppm ([2]; 200 ppm): 100%
- melting point: 156 to 159 °C

Molecule: COC(=O)NCc1cc(-c2ncn(-c3ccc(C)cc3C)n2)ccc1C [Compound 118, methyl N-[[5-[1-(2,4-dimethylphenyl)-1H-1,2,4-triazol-3-yl]-2-methylphenyl]methyl]carbamate]
- pest or weed control at 200 ppm ([1]; 200 ppm): 99%
- pest or weed control at 200 ppm ([2]; 200 ppm): 100%
- melting point: 148 to 151 °C

Molecule: COC(=O)NCc1cc(-c2ncn(-c3ccc(Cl)cc3Cl)n2)ccc1C [Compound 119]
- pest or weed control at 200 ppm ([1]; 200 ppm): 99%
- pest or weed control at 200 ppm ([2]; 200 ppm): 100%
- melting point: 152 to 155 °C

Molecule: COC(=O)NCc1cc(-c2ccn(-c3ccc(OC)cc3OC)n2)ccc1C [compound 24]
- % Cmpd Remaining [3]: 78%
- Test A disease control rating ([1]; 200 ppm): 100%
- Test B disease control rating ([2]; 200 ppm): 100%
- Test C disease control rating (Septoria tritici; 200 ppm): 100%
- Test E disease control rating (Botrytis cinerea; 200 ppm): 55%

Molecule: methyl N-[[5-[1-(2,4-dimethylphenyl)-1H-pyrazol-3-yl]-2-methylphenyl]-methyl]carbamate [Compound 66]
- Test A disease control rating ([1]; 40 ppm (*)): 100* %
- Test B disease control rating ([2]; 40 ppm (*)): 100* %
- Test C disease control rating (Septoria tritici; 40 ppm (*)): 96* %
- Test D disease control rating (Septoria nodorum; 40 ppm (*)): 100* %
- Test E disease control rating (Botrytis cinerea; 40 ppm (*)): 99* %

Molecule: methyl N-[[5-[1-(4-methoxy-2-methylphenyl)-1H-1,2,4-triazol-3-yl]-2-methylphenyl]methyl]carbamate [Compound 70]
- Test A disease control rating ([1]; 200 ppm): 100%
- Test B disease control rating ([2]; 200 ppm): 100%
- Test C disease control rating (Septoria tritici; 200 ppm): 100%
- Test D disease control rating (Septoria nodorum; 200 ppm): 100%
- Test E disease control rating (Botrytis cinerea; 200 ppm): 0%

Molecule: methyl N-[[5-[3-(2,4-dimethoxyphenyl)-1H-pyrazol-1-yl]-2-methylphenyl]methyl]carbamate [Compound 23]
- Test A disease control rating ([1]; 200 ppm): 99%
- Test B disease control rating ([2]; 200 ppm): 100%
- Test C disease control rating (Septoria tritici; 200 ppm): 100%
- Test D disease control rating (Septoria nodorum; 200 ppm): 100%
- Test E disease control rating (Botrytis cinerea; 200 ppm): 56%

Molecule: methyl N-[[5-[3-(2,6-dimethoxy-3-pyridinyl)-1H-pyrazol-1-yl]-2-methylphenyl]-methyl]carbamate [Compound 46]
- Test A disease control rating ([1]; 40 ppm (*)): 98* %
- Test B disease control rating ([2]; 40 ppm (*)): 100* %
- Test C disease control rating (Septoria tritici; 40 ppm (*)): 98* %
- Test D disease control rating (Septoria nodorum; 40 ppm (*)): 100* %
- Test E disease control rating (Botrytis cinerea; 40 ppm (*)): 92* %

Molecule: methyl N-[[5-[4-(2,4-dimethylphenyl)-2H-1,2,3-triazol-2-yl]-2-methylphenyl]-methyl]carbamate [Compound 91]
- Test A disease control rating ([1]; 40 ppm (*)): 100* %
- Test B disease control rating ([2]; 40 ppm (*)): 100* %
- Test C disease control rating (Septoria tritici; 40 ppm (*)): 92* %
- Test D disease control rating (Septoria nodorum; 40 ppm (*)): 100* %
- Test E disease control rating (Botrytis cinerea; 40 ppm (*)): 33* %
